Data reported in patent US12552783B2, “Modulators of proteolysis and associated methods of use” (Arvinas Operations, Inc., priority 2018, dated 2026).

Molecular target: KRas (Homo sapiens, UniProt P01116, G12C)
Experiment: KRas degradation in NCI-H2030 cells by Western blot, normalized to GAPDH (data of Table 14)
Format: cell-based
Design: host or cells: NCI-H2030
Conditions: for Percent Degradation at Indicated Concentration (μM): H2030; for Dmax: NCI-H2030
Procedure, shortened: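 Readout: GAPDH-normalized KRas immunoblot signal, expressed as percent degradation versus 0.1% DMSO vehicle. Treatment: 0.3, 1, 3 μM after 24 h starvation; 24 h (VHL-based) or 72 h (others).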

C=CC(=O)N1CCN(c2nc(NCCC(=O)N(C)CCOCCOCCOCCOCCOCC(=O)N[C@H](C(=O)N3C[C@H](O)C[C@H]3C(=O)N[C@@H](C)c3ccc(-c4scnc4C)cc3)C(C)(C)C)nc3c(F)c(-c4c(O)cccc4F)c(Cl)cc23)CC1 [compound 214, (2S,4R)-1-((S)-24-(((R)-4-(4-acryloylpiperazin-1-yl)-6-chloro-8-fluoro-7-(2-fluoro-6-hydroxyphenyl)quinazolin-2-yl)amino)-2-(tert-butyl)-21-methyl-4,22-dioxo-6,9,12,15,18-pentaoxa-3,21-diazatetracosanoyl)-4-hydroxy-N-((S)-1-(4-(4-methylthiazol-5-yl)phenyl)ethyl)pyrrolidine-2-carboxamide]
Percent Degradation at Indicated Concentration (μM) (0.3 μM): C (Percent Degradation: C ≤ 35)
Percent Degradation at Indicated Concentration (μM) (1 μM): C (Percent Degradation: C ≤ 35)
Percent Degradation at Indicated Concentration (μM) (3 μM): C (Percent Degradation: C ≤ 35)
Dmax: ≤ 35%

C=CC(=O)N1CCN(c2nc(NCCC(=O)N(C)CCOCCOCCN3CCN(CC(=O)N[C@H](C(=O)N4C[C@H](O)C[C@H]4C(=O)N[C@@H](C)c4ccc(-c5scnc5C)cc4)C(C)(C)C)CC3)nc3c(F)c(-c4cc(O)cc5ccccc45)c(Cl)cc23)CC1 [compound 249, (2S,4R)-1-((2S)-2-(2-(4-(2-(2-(2-(3-((4-(4-acryloylpiperazin-1-yl)-6-chloro-8-fluoro-7-(3-hydroxynaphthalen-1-yl)quinazolin-2-yl)amino)-N-methylpropanamido)ethoxy)eth-oxy)ethyl)piperazin-1-yl)acetamido)-3,3-dimethylbutanoyl)-4-hydroxy-N-((S)-1-(4-(4-methylthiazol-5-yl)phenyl)ethyl)pyrrolidine-2-carboxamide]
Percent Degradation at Indicated Concentration (μM) (0.3 μM): C (Percent Degradation: C ≤ 35)
Percent Degradation at Indicated Concentration (μM) (1 μM): C (Percent Degradation: C ≤ 35)
Percent Degradation at Indicated Concentration (μM) (3 μM): C (Percent Degradation: C ≤ 35)
Dmax: ≤ 35%

CN[C@@H](C)C(=O)N[C@H](C(=O)N1CCC[C@H]1c1nc(-c2ccc(OCCOCCOCCOCCN(C)C(=O)CCNc3nc(N4CCN(C(C)=O)CC4)c4cc(Cl)c(-c5cc(O)cc6ccccc56)c(F)c4n3)c3ccccc23)cs1)C1CCCCC1 [compound 268, 3-((4-(4-acetylpiperazin-1-yl)-6-chloro-8-fluoro-7-(3-hydroxynaphthalen-1-yl)quinazolin-2-yl)amino)-N-(2-(2-(2-(2-((4-(2-((S)-1-((S)-2-cyclohexyl-2-((S)-2-(methylamino)propan-amido)acetyl)pyrrolidin-2-yl)thiazol-4-yl)naphthalen-1-yl)oxy)ethoxy)ethoxy)eth-oxy)ethyl)-N-methylpropanamide]
Percent Degradation at Indicated Concentration (μM) (0.3 μM): C (Percent Degradation: C ≤ 35)
Percent Degradation at Indicated Concentration (μM) (1 μM): C (Percent Degradation: C ≤ 35)
Percent Degradation at Indicated Concentration (μM) (3 μM): C (Percent Degradation: C ≤ 35)
Dmax: ≤ 35%

CN[C@@H](C)C(=O)N[C@H](C(=O)N1CCC[C@H]1c1nc(-c2ccc(OCCOCCOCCOCCOCCN(C)C(=O)CCNc3nc(N4CCN(C(C)=O)CC4)c4cc(Cl)c(-c5cc(O)cc6ccccc56)c(F)c4n3)c3ccccc23)cs1)C1CCCCC1 [compound 269, 3-((4-(4-acetylpiperazin-1-yl)-6-chloro-8-fluoro-7-(3-hydroxynaphthalen-1-yl)quinazolin-2-yl)amino)-N-(14-((4-(2-((S)-1-((S)-2-cyclohexyl-2-((S)-2-(methylamino)propan-amido)acetyl)pyrrolidin-2-yl)thiazol-4-yl)naphthalen-1-yl)oxy)-3,6,9,12-tetraoxatetradecyl)-N-methylpropanamide]
Percent Degradation at Indicated Concentration (μM) (0.3 μM): C (Percent Degradation: C ≤ 35)
Percent Degradation at Indicated Concentration (μM) (1 μM): C (Percent Degradation: C ≤ 35)
Percent Degradation at Indicated Concentration (μM) (3 μM): C (Percent Degradation: C ≤ 35)
Dmax: ≤ 35%

C=CC(=O)N1CCN(c2nc(NCCC(=O)N(C)CCOCCOc3ccc(-c4csc([C@@H]5CCCN5C(=O)[C@@H](NC(=O)[C@H](C)NC)C5CCCCC5)n4)c4ccccc34)nc3c(F)c(-c4cc(O)cc5ccccc45)c(Cl)cc23)CC1 [compound 271, 3-((4-(4-acryloylpiperazin-1-yl)-6-chloro-8-fluoro-7-(3-hydroxynaphthalen-1-yl)quinazolin-2-yl)amino)-N-(2-(2-((4-(2-((S)-1-((S)-2-cyclohexyl-2-((S)-2-(methylamino)propan-amido)acetyl)pyrrolidin-2-yl)thiazol-4-yl)naphthalen-1-yl)oxy)ethoxy)ethyl)-N-methylpropanamide]
Percent Degradation at Indicated Concentration (μM) (0.3 μM): C (Percent Degradation: C ≤ 35)
Percent Degradation at Indicated Concentration (μM) (1 μM): C (Percent Degradation: C ≤ 35)
Percent Degradation at Indicated Concentration (μM) (3 μM): C (Percent Degradation: C ≤ 35)
Dmax: ≤ 35%

C=CC(=O)N1CCN(c2nc(NCCC(=O)N(C)CCOCCOCCOCCOc3ccc(-c4csc([C@@H]5CCCN5C(=O)[C@@H](NC(=O)[C@H](C)NC)C5CCCCC5)n4)c4ccccc34)nc3c(F)c(-c4cc(O)cc5ccccc45)c(Cl)cc23)CC1 [compound 273, 3-((4-(4-acryloylpiperazin-1-yl)-6-chloro-8-fluoro-7-(3-hydroxynaphthalen-1-yl)quinazolin-2-yl)amino)-N-(2-(2-(2-(2-((4-(2-((S)-1-((S)-2-cyclohexyl-2-((S)-2-(methylamino)propan-amido)acetyl)pyrrolidin-2-yl)thiazol-4-yl)naphthalen-1-yl)oxy)ethoxy)ethoxy)eth-oxy)ethyl)-N-methylpropanamide]
Percent Degradation at Indicated Concentration (μM) (0.3 μM): C (Percent Degradation: C ≤ 35)
Percent Degradation at Indicated Concentration (μM) (1 μM): C (Percent Degradation: C ≤ 35)
Percent Degradation at Indicated Concentration (μM) (3 μM): C (Percent Degradation: C ≤ 35)
Dmax: ≤ 35%

C=CC(=O)N1CCN(c2nc(NCCC(=O)N(C)CCOCCOCCNC(=O)c3ccc(NC(=O)[C@@H]4N[C@@H](CC(C)(C)C)[C@](C#N)(c5ccc(Cl)cc5F)[C@H]4c4cccc(Cl)c4F)c(OC)c3)nc3c(F)c(-c4cc(O)cc5ccccc45)c(Cl)cc23)CC1 [compound 302, (2R,3S,4R,5S)-N-(4-((2-(2-(2-(3-((4-(4-acryloylpiperazin-1-yl)-6-chloro-8-fluoro-7-(3-hydroxynaphthalen-1-yl)quinazolin-2-yl)amino)-N-methylpropanamido)ethoxy)eth-oxy)ethyl)carbamoyl)-2-methoxyphenyl)-3-(3-chloro-2-fluorophenyl)-4-(4-chloro-2-fluorophenyl)-4-cyano-5-neopentylpyrrolidine-2-carboxamide]
Percent Degradation at Indicated Concentration (μM) (0.3 μM): C (Percent Degradation: C ≤ 35)
Percent Degradation at Indicated Concentration (μM) (1 μM): C (Percent Degradation: C ≤ 35)
Percent Degradation at Indicated Concentration (μM) (3 μM): C (Percent Degradation: C ≤ 35)
Dmax: ≤ 35%

C=CC(=O)N1CCN(c2nc(NCCC(=O)N(C)CCOCCOCCOCCNC(=O)c3ccc(NC(=O)[C@@H]4N[C@@H](CC(C)(C)C)[C@](C#N)(c5ccc(Cl)cc5F)[C@H]4c4cccc(Cl)c4F)c(OC)c3)nc3c(F)c(-c4cc(O)cc5ccccc45)c(Cl)cc23)CC1 [compound 303, (2R,3S,4R,5S)-N-(4-((15-((4-(4-acryloylpiperazin-1-yl)-6-chloro-8-fluoro-7-(3-hydroxynaphthalen-1-yl)quinazolin-2-yl)amino)-12-methyl-13-oxo-3,6,9-trioxa-12-azapentadecyl)carbamoyl)-2-methoxyphenyl)-3-(3-chloro-2-fluorophenyl)-4-(4-chloro-2-fluorophenyl)-4-cyano-5-neopentylpyrrolidine-2-carboxamide]
Percent Degradation at Indicated Concentration (μM) (0.3 μM): C (Percent Degradation: C ≤ 35)
Percent Degradation at Indicated Concentration (μM) (1 μM): C (Percent Degradation: C ≤ 35)
Percent Degradation at Indicated Concentration (μM) (3 μM): C (Percent Degradation: C ≤ 35)
Dmax: ≤ 35%

C=CC(=O)N1CCN(c2nc(NCCC(=O)N(C)CCOCCOCCOCCOCCNC(=O)c3ccc(NC(=O)[C@@H]4N[C@@H](CC(C)(C)C)[C@](C#N)(c5ccc(Cl)cc5F)[C@H]4c4cccc(Cl)c4F)c(OC)c3)nc3c(F)c(-c4cc(O)cc5ccccc45)c(Cl)cc23)CC1 [compound 304, (2R,3S,4R,5S)-N-(4-((18-((4-(4-acryloylpiperazin-1-yl)-6-chloro-8-fluoro-7-(3-hydroxynaphthalen-1-yl)quinazolin-2-yl)amino)-15-methyl-16-oxo-3,6,9,12-tetraoxa-15-azaoctadecyl)carbamoyl)-2-methoxyphenyl)-3-(3-chloro-2-fluorophenyl)-4-(4-chloro-2-fluorophenyl)-4-cyano-5-neopentylpyrrolidine-2-carboxamide]
Percent Degradation at Indicated Concentration (μM) (0.3 μM): C (Percent Degradation: C ≤ 35)
Percent Degradation at Indicated Concentration (μM) (1 μM): C (Percent Degradation: C ≤ 35)
Percent Degradation at Indicated Concentration (μM) (3 μM): C (Percent Degradation: C ≤ 35)
Dmax: ≤ 35%
